Reference: US4778817A, “Naphthyl imidazolyl compounds and pharmaceutical compositions” (priority 1985, dated 1988)
Where a name gives a salt, the structure may show the parent alone.

Tests used:
[1] = test system: human platelets; assay: Inhibition of the arachidonic acid-induced aggregation of human platelets in vitro; assay type: cell-based; conditions: human platelet-rich plasma; 2×10^-4 M arachidonic acid; preincubation 10 min at 37° C.
Experimental: 1. Inhibition of the arachidonic acid-induced aggregation of human platelets in vitro.
Blood is taken, by careful cannulation of the antecubital vein, from apparently healthy male and female volunteers, who have taken no medicaments in the preceding 10-day period, and is immediately stabilized with sodium citrate (ad. 0.38%). Platelet-rich plasma (PRP) is obtained in the supernatant by centrifugation at 140×g for 15 minutes, and the platelet content of this should be in the range 2.5-3.5×10^8 /ml (Coulter counter). The platelet aggregation is followed optically by measurement of the transmission of light in a Born aggregometer. The total volume of the test mix is 0.25 ml. The preincubation time at 37° C. with the test product is 10 min, and aggregation is then induced with 2×10^-4 M arachidonic acid. The test product is, as a rule, tested in five different concentrations in the PRP from three different donors. Dose-effect curves are drawn from the maximal aggregation amplitudes in each case, and the IC50 values* are determined graphically. The measurements are carried out in the period 1-6 hours after blood sampling. […]
The following IC50 values for the inhibition of the arachidonic acid-induced aggregation of human platelets in vitro were determined by the method described above for the compounds according to the invention: […]

[2] = test system: Thrombin-induced TXA2 release; assay: Thrombin-induced TXA2 release in platelet-rich human plasma in vitro (TXB2 determined radioimmunologically); assay type: cell-based; conditions: 0.5 h, relative to without test substance (=100%); for activity at 1 µM: test substance 10^-6 mol/l; for activity at 0.1 µM: test substance 10^-7 mol/l
Experimental: 2. Thrombin-induced TXA2 release in platelet-rich human plasma in vitro
Blood is taken, by careful cannulation of the antecubital vein, from apparently healthy male and female volunteers, who have taken no medicaments in the preceding 10-day period, and is immediately stabilized with sodium citrate (ad. 0.38%). Platelet-rich plasma (PRP) is obtained in the supernatant by centrifugation at 140×g for 15 minutes, and the platelet content of this should be in the range 2.5-3.5×10^8 /ml. The platelets are sedimented by renewed centrifugation (10 min at 2,000×g), and then resolubilized in Tyrode's solution (about 7×10^7 platelets/ml, total volume per measurement 0.5 ml). After addition of test substance, the mixture is incubated at 37° C. for 10 min, and then 7.2×10^-7 M arachidonic acid and 0.5 U thrombin are added, and incubation is carried out at 37° C. for 30 min. This is stopped in an ice bath and, after addition of tracer and TXB2 -specific antibodies (NEN, Dreieich), the TXB2 content is determined radioimmunologically (TXA2 is unstable under the experimental conditions and thus cannot be measured. The stable hydrolysis product TXB2 is measured in its place). The measured variable is the relative TXB2 content in the platelet incubations from two or three different donors with and without (=100%) the test substance.
The following figures for the TXB2 release after administration of the test substance were determined, for example, for the compounds according to the invention by the method described above: […]

[3] = test system: laser-induced thrombosis; assay: Inhibition of laser-induced thrombosis; assay type: in vivo, Sprague-Dawley rats; conditions: one hour before start, rat mesentery arterioles
Experimental: 3. Inhibition of laser-induced thrombosis
The investigations of the compounds according to the invention in the model of laser-induced thrombosis are carried out on male or female Sprague-Dawley rats with a body weight of about 200 g. The animals to be investigated are premedicated s.c. with 0.1 mg of atropine sulfate in solution, and anesthetized i.p. with 100 mg of ketamine hydrochloride and 4 mg of xylazine per kg of body weight. Arterioles from the mesentery, with a diameter of 12-25 μm, are used for the investigation. During the measurement, the exposed mesentery is hyperfused with warmed physiological NaCl (37° C.) or is covered with degassed liquid paraffin. The beam of a 4 W argon laser (supplied by Spectra Physics, Darmstadt, FRG) is introduced coaxially into the inverted ray path of a microscope (ICM 405, LD-Epilan 40/0.60; supplied by Zeiss, Oberkochen, FRG) by means of a ray adaptation and adjustment system (supplied by BTG, Munich, FRG). The wavelength used is 514.5 nm, with an energy above the objective of 40 mW. The single-shot exposure time is 1/15 sec. The diameter of the effective laser beam on the vessel is 10 μm, and with repeated exposure the next shot takes place 5 μm upstream in each case, directly on the vessel wall. All the measurement procedures are filmed by video camera (Sony, Trinicon tube) and stored in a recorder (Sony, U-matic 3/4). A survey image of the terminal vessels which are to be investigated is provided by the transillumination method using the same microscope with low magnification (LD-Epilan 8/0.20). A video-analyzer and a correlator are used to determine the rate of flow in the arterioles under investigation. […]
The number of shots needed to induce a defined thrombus was counted. The frequency of the laser flashes was one lesion every 2 minutes, all the thrombi with a minimum size of 1/4 of the vessel radius which were formed during the observation period being counted and measured. The results of the experiment were statistically analyzed using the X^2 test (L. Cavalli-Sforza, Biometrie, Stuttgart, 1969, page 49 et seq.).

SMILES | IC50 [1] | activity at 1 µM [2] | activity at 0.1 µM [2] | activity at 0.01 µM ([2]; test substance 10^-8 mol/l) | Number of laser shots to form a thrombus (compared with control) ([3]; 1 mg/kg p.o.) | Number of laser shots to form a thrombus (compared with control) ([3]; 5 mg/kg p.o.) | Number of laser shots to form a thrombus (compared with control) ([3]; 10 mg/kg p.o.)
CC(c1ccc2cc(C(=O)O)ccc2c1)n1ccnc1 (stereo not shown) [Example 2, 6-[1-(1-Imidazolyl)ethyl]-2-naphthoic acid hydrochloride] | 3000 nM | 31% | 55% | – | – | – | –
Cc1cncn1Cc1ccc2cc(C(=O)O)ccc2c1.Cl [Example 4, 6-(5-Methyl-1-imidazolyl)methyl-2-naphthoic acid hydrochloride] | 540 nM | 9% | 19% | 98% | +16% | +53% | +96%
